Reference: patent US4622342A, “Secondary amines” (priority 1981, dated 1986)
Where a name gives a salt, the structure may show the parent alone. Read-outs that look alike come from different tables or passages of the source.

Legend:
[1] = system: blood glucose; assay: Anti-hyperglycaemic activity (blood glucose after subcutaneous glucose in fasted mice); type: in vivo, Female CFLP mice; settings: Mus musculus, read-out: Reduction in area under blood glucose curve
Procedure: Female CFLP mice, each weighing approximately 25 g were fasted for 24 hours prior to the study. The compounds under study were administered orally as an aqueous solution to each of 6 mice. 6 mice were given water as a control. 30 minutes later a blood sample (20 μl ) was obtained from the tail for the analysis of blood glucose. Immediately after taking this blood sample, glucose (1 g/kg body weight) was administered subcutaneously to each mouse. Blood samples were then obtained from each mouse at 30 minute intervals for 120 minutes.
Compounds that produced a significant (P<0.05) reduction of blood glucose, compared with control mice given water, at any time interval, were considered active. The area under the blood glucose curve over the 2 hour period after the adminstration of the glucose was calculated for each compound and compared with the value for control animals.

[2] = system: rat ear inflammation; assay: Topical anti-inflammatory activity (croton oil rat ear inflammation); type: in vivo; settings: 1.0 mg/rat ear; 6 hours; activity = significant (5% level) reduction in ear weight vs non-drug treated control
Procedure: The method used is based on that described by G. Tonelli et al (Endocrinology, 77, 625-634, 1965). An inflammation is induced in the rat ear by the application of 50 μl of a 1% solution of croton oil in tetrahydrofuran, test compounds being dissolved in the irritant vehicle. After 6 hours the inflammation is assessed by killing the animals and weighing the ears. Topical anti-inflammatory activity of a compound is generally considered to be shown when a significant (5% level) reduction in ear weight is seem compared to non-drug treated control.

[3] = system: Rat hearts; assay: Cardiac activity, rat hearts perfused by the Langendorff procedure
Procedure: Rat hearts were perfused by the Langendorff procedure as follows:
Hearts were dissected free within 30 seconds of death and reverse perfused via the aorta and coronary vessels with Krebs-Ringer bicarbonate solution (pH 7.4, 37° C.) gassed with 95% oxygen:5% carbon dioxide at a flow rate between 8-12 cm^3 /minute. Responses were observed after injection of drug dissolved in isotonic saline into the perfusion media.
Results are expressed as a percentage of the maximum response due to salbutamol.

[4] = system: platelet aggregation; assay: Platelet aggregation inhibition activity (collagen-induced fall in platelet count, oral dosing); type: in vivo, Male CFLP mice; settings: collagen 400 μg/kg i.v. two hours later
Procedure: Male CFLP mice (ca 20 g, n=8) were dosed orally with compound or vehicle (controls) after an overnight fast. Two hours later each mouse received an intravenous dose of collagen (400 μg/kg, pH 6-6.6). Exactly 30 seconds after injection of collagen, each mouse was placed in a chamber of CO2 until respiration ceased. […] Each blood platelet count was expressed as a percent of that obtained in a tail blood sample taken immediately before injection of collagen.

[5] = read-out: Heart Rate (percentage of the maximum response due to salbutamol)
[6] = read-out: Heart Tension (percentage of the maximum response due to salbutamol)
[7] = 10 μg added to perfusate (salbutamol dose not given), read-out: Heart Rate (percentage of the maximum response due to salbutamol)
[8] = 10 μg added to perfusate (salbutamol dose not given), read-out: Heart Tension (percentage of the maximum response due to salbutamol)
[9] = dose 1 μ moles/kg po, 2 hour period after glucose 1 g/kg s.c.

COc1ccc(CC(C)NCC(O)c2cccc(Br)c2)cc1 (stereo not shown) [Example 8, N-[2-(4-Methoxyphenyl)-1-methylethyl]-2-hydroxy-2-(3-bromophenyl)ethanamine]
inhibition in vivo at 1 µmol/kg ([1]; po, 2 h): 30%

COc1ccc(CC(C)NCC(O)c2cccc(F)c2)cc1 (stereo not shown) [Example 7, N-[2-(4-Methoxyphenyl)-1-methylethyl]-2-hydroxy-2-(3-fluorophenyl)ethanamine]
inhibition in vivo at 5 µmol/kg ([1]; po, 2 h): 32%

CC(Cc1ccc(OC2CCCCC2)cc1)NCC(O)c1cccc(Cl)c1 (stereo not shown) [Example 21, N-[2-(4-Cyclohexyloxyphenyl)-1-methylethyl]-2-hydroxy-2-[3-chlorophenyl)ethanamine hydrochloride]
inhibition in vivo at 2.5 µmol/kg ([1]; po, 2 h): 53%

COc1ccc(CC(C)NCC(O)c2cccc(Cl)c2)cc1 (stereo not shown) [Example 5, N-[2-(4-Methoxyphenyl)-1-methylethyl]-2-hydroxy-2-(3-chlorophenyl)ethanamine]
inhibition in vivo at 1 µmol/kg ([1]; po, 2 h): 49%
Topical anti-inflammatory ACTIVITY [2]: Active

COc1ccc(C[C@H](C)NC[C@H](O)c2cccc(Cl)c2)cc1F (relative stereo) [Example 15, N-[2-(3-Fluoro-4-methoxyphenyl)-1-methylethyl]-2-hydroxy-2-(3-chlorophenyl)ethanamine-(RS,SR) diastereoisomer]
inhibition in vivo at 1 µmol/kg ([1]; po, 2 h): 19%

CC(Cc1ccc(OCCc2ccccc2)cc1)NCC(O)c1cccc(Cl)c1 (stereo not shown) [Example 22, N-[2-(4-{2-phenylethoxy}phenyl)-1-methylethyl]-2-hydroxy-2-(3-chlorophenyl)ethanamine]
inhibition in vivo at 2.5 µmol/kg ([1]; dose 2.5 μ moles/kg po, 2 hour period after glucose 1 g/kg s.c.): 13%

COc1ccc(CC(C)NCC(O)c2cccc(Cl)c2)cc1F (stereo not shown) [Example 3, N-[2-(3-Fluoro-4-methoxyphenyl)-1-methylethyl]-2-hydroxy-2-(3-chlorophenyl)ethanamine]
Emax [3, 5]: 0%
Emax [3, 6]: 36%
inhibition in vivo at 1 µmol/kg ([1]; po, 2 h): 46%

COc1ccc(C[C@@H](C)NC[C@H](O)c2cccc(Cl)c2)cc1F (relative stereo) [Example 4, N-[2-(3-Fluoro-4-methoxyphenyl)-1-methylethyl]-2-hydroxy-2-(3-chlorophenyl)ethanamine hydrobromide-(RR,SS) diastereoisomer]
inhibition in vivo at 1 µmol/kg ([1]; po, 2 h): 42%

COc1ccc(C[C@@H](C)NCC(O)c2cccc(Cl)c2)cc1F (stereo partly drawn) [Example 17, N-[2-(3-Fluoro-4-methoxyphenyl)-1-(R)-1-methylethyl]-2-(R,S)-2-hydroxy-2-(3-chlorophenyl)ethanamine hydrobromide]
inhibition in vivo at 2.5 µmol/kg ([1]; po, 2 h): 38%

CC(=O)Oc1ccccc1C(=O)O [Aspirin, reference compound]
% INHIBITION OF RESPONSE TO COLLAGEN ([4]; dose 600 μmol/kg po): 33%

COc1cccc(CC(C)NCC(O)c2cccc(Cl)c2)c1 (stereo not shown) [Example 23, N-[2-(3-Methoxyphenyl)-1-methylethyl]-2-hydroxy-2-(3-chlorophenyl)ethanamine hydrochloride]
inhibition in vivo at 2.5 µmol/kg ([1]; po, 2 h): 22%

COc1ccc(CC(C)NCC(O)c2cccc(Cl)c2)cc1OC (stereo not shown) [Example 19, N-[2-(3,4-Dimethoxyphenyl)-1-methylethyl]-2-hydroxy-2-(3-chlorophenyl)ethanamine]
inhibition in vivo at 2.5 µmol/kg ([1]; po, 2 h): 21%

COc1ccc(CCC(C)(C)NCC(O)c2cccc(Cl)c2)cc1 (stereo not shown) [Example 16, N-[3-(4-Methoxyphenyl)-1,1-dimethylpropyl]-2-hydroxy-2-(3-chlorophenyl)ethanamine]
inhibition in vivo at 50 µmol/kg ([1]; dose 50 μ moles/kg po, 2 hour period after glucose 1 g/kg s.c.): 21%

COc1ccc(C[C@H](C)NC[C@H](O)c2cccc(Cl)c2)cc1OC (relative stereo) [Example 20, N-[2-(3,4-Dimethoxyphenyl)-1-methylethyl]-2-hydroxy-2-(3-chlorophenyl)ethanamine-(RS,SR) diastereoisomer]
inhibition in vivo at 2.5 µmol/kg ([1]; po, 2 h): 34%

CC(Cc1ccc(OCc2ccccc2)cc1)NCC(O)c1cccc(Cl)c1 (stereo not shown) [Example 1, N-[2-(4-Benzyloxyphenyl)-1-methylethyl]-2-hydroxy-2-(3-chlorophenyl)ethanamine]
Emax [3, 7]: 0%
Emax [3, 8]: 7%
inhibition in vivo at 1 µmol/kg [1, 9]: 36%

COc1ccc(CC(C)NCC(O)c2cccc(Cl)c2)cc1C (stereo not shown) [Example 18, N-[2-(4-methoxy-3-methylphenyl)-1-methylethyl]-2-hydroxy-2-(3-chlorophenyl)ethanamine]
inhibition in vivo at 2.5 µmol/kg ([1]; po, 2 h): 58%

CC(Cc1ccc(O)cc1)NCC(O)c1cccc(Cl)c1 (stereo not shown) [Example 2, N-[2-(4-Hydroxyphenyl)-1-methylethyl]-2-hydroxy-2-(3-chlorophenyl)ethanamine]
Emax [3, 5]: 14%
Emax [3, 6]: 26%
inhibition in vivo at 1 µmol/kg ([1]; po, 2 h): 47%
% INHIBITION OF RESPONSE TO COLLAGEN ([4]; dose 5 μmol/kg po): 40%

COc1ccc(C[C@@H](C)NC[C@H](O)c2cccc(Cl)c2)cc1 (relative stereo) [Example 6, N-[2-(4-Methoxyphenyl)-1-methylethyl]-2-hydroxy-2-(3-chlorophenyl)ethanamine hydrobromide-(RR,SS) diastereoisomer]
inhibition in vivo at 0.5 µmol/kg ([1]; po, 2 h): 30%
inhibition in vivo at 1 µmol/kg ([1]; po, 2 h): 40%

CC(Cc1ccc(OC(C)C)cc1)NCC(O)c1cccc(Cl)c1 (stereo not shown) [Example 11, N-[2-(4-Isopropoxyphenyl)-1-methylethyl]-2-hydroxy-2-(3-chlorophenyl)ethanamine]
inhibition in vivo at 0.2 µmol/kg ([1]; po, 2 h): 12.5%

COc1ccc(CC(C)NCC(O)c2cccc(Cl)c2F)cc1 (stereo not shown) [Example 9, N-[2-(4-Methoxyphenyl)-1-methylethyl]-2-hydroxy-2-(3-chloro-2-fluorophenyl)ethanamine]
inhibition in vivo at 1 µmol/kg ([1]; po, 2 h): 40%

COc1ccccc1CC(C)NCC(O)c1cccc(Cl)c1 (stereo not shown) [Example 24, N-[2-(2-Methoxyphenyl)-1-methylethyl]-2-hydroxy-2-(3-chlorophenyl)ethanamine]
inhibition in vivo at 5 µmol/kg ([1]; po, 2 h): 27%

COc1ccc(CCNCC(O)c2cccc(Cl)c2)cc1 (stereo not shown) [Example 14, N-[2-(4-Methoxyphenyl)ethyl]-2-hydroxy-2-(3-chlorophenyl)ethanamine]
inhibition in vivo at 1 µmol/kg [1, 9]: 39%

CCCCCCCCCCOc1ccc(CC(C)NCC(O)c2cccc(Cl)c2)cc1 (stereo not shown) [Example 13, N-[2-(4-^n Decyloxyphenyl)-1-methylethyl]-2-hydroxy-2-(3-chlorophenyl)ethanamine]
inhibition in vivo at 1 µmol/kg [1, 9]: 22%

CCCCCOc1ccc(CC(C)NCC(O)c2cccc(Cl)c2)cc1 (stereo not shown) [Example 12, N-[2-(4-^n Pentyloxyphenyl)-1-methylethyl]-2-hydroxy-2-(3-chlorophenyl)ethanamine]
inhibition in vivo at 0.5 µmol/kg ([1]; po, 2 h): 36%

CC(CCc1ccc(O)cc1)NCC(O)c1cccc(Cl)c1 (stereo not shown) [Example 10, N-[3-(4-Hydroxyphenyl)-1-methylpropyl]-2-hydroxy-2-(3-chlorophenyl)ethanamine]
inhibition in vivo at 1 µmol/kg [1, 9]: 47%
% INHIBITION OF RESPONSE TO COLLAGEN ([4]; dose 5 μmol/kg po): 40%

CC(C)(C)NCC(O)c1ccc(O)c(CO)c1 (stereo not shown) [Salbutamol, salbutamol, reference compound]
Emax [3, 7]: 100%
Emax [3, 8]: 100%
